# Assay results: publication PMC6278399, “Synthesis and Anticancer Activity Evaluation of Hydrolyzed Derivatives of Panaxnotoginseng Saponins” (Molecules, 2018)
# Assays:
# [1] = system: human colon cancer cells (HT-29); test: MTT cytotoxicity assay, HT-29; format: cell-based; conditions: HT-29, MTT, 48 h
# Text: (§1) In the study, five cancer cell lines (human colon cancer cells (HT-29), gastric cancer cells (BGC-823), cervical cancer cells (Hela), human breast cancer cells (MCF-7), and human lung cancer cells A549)), and two normal cell lines (human gastric epithelial cells (GES-1) and human ovarian epithelial cells (IOSE144)) were used for the evaluation of biological activity. IOSE144 cells were donated by Professor Piao Huri of Yanbian University, all other cells were purchased from the American Type Culture Collection (ATCC, Manassas, VA, USA). Cells were cultured in Dulbecco’s Modified Eagle’s Medium (DMEM), supplemented with 10% heat-inactivated fetal bovine serum (FBS), 1% 100 μg/mL penicillin and 100 μg/mL streptomycin in a humidified atmosphere containing 5% CO2 at 37 °C. Cell viability was measured using the MTT assay. Cells were seeded in 96 well microtiter plates in a volume of 100 μL medium. All compounds tested were dissolved and further diluted in DMSO. After overnight incubation, cells were treated with different test concentrations or carrier solvents alone in a final volume of 100 μL with five replicates each. […] Cells were treated with compound (80, 40, 20, 10, 5 μM) for 48 h. Then, 10 μL of MTT (5 mg/mL) was added to each well and the cells were incubated at 37 °C in the dark for 4 h. Supernatants were removed and formazan crystals were dissolved in DMSO (100 μL/well). The solution was agitated for 10 min, and the absorbance was measured at 490 nm using microplate reader (imark, BIO-RAD, Hercules, CA, USA) to calculate the 50% inhibitory concentration (IC50). Ginsenoside-Rg3, panaxadiol sapogenin (PD), AD-2 (25-OH-PPD) and AD-1 (25-OCH3-PPD) were used as standard reference compounds.
# [2] = system: gastric cancer cells (BGC-823); test: MTT cytotoxicity assay, BGC-823; format: cell-based, human; conditions: BGC-823, MTT, 48 h
# Text: as §1
# [3] = system: cervical cancer cells (Hela); test: MTT cytotoxicity assay, Hela; format: cell-based, human; conditions: 48 h
# Text: as §1
# [4] = system: human breast cancer cells (MCF-7); test: MTT cytotoxicity assay, MCF-7; format: cell-based; conditions: MCF-7, MTT, 48 h
# Text: as §1
# [5] = system: human lung cancer cells A549; test: MTT cytotoxicity assay, A549; format: cell-based; conditions: 48 h
# Text: as §1
# [6] = MTT cytotoxicity assay, GES-1 normal cells; format: cell-based, human; conditions: human
# Text: as §1
# [7] = MTT cytotoxicity assay, IOSE144 normal cells; format: cell-based, human; conditions: human
# Text: as §1
# MCF-7 cells [8] = test: Cell cycle distribution assay, MCF-7; format: cell-based, human; conditions: MCF-7, 30 μM, 24 h; controls 0.73% (3b) and 1.69% (AD-1)
# Protocol: MCF-7 cells treated with 30 μM of compound 3b were incubated for 24 h in CO2 incubator. AD-1 was tested as a positive control, and the experimental concentration of AD-1 was 30 μM. Cells were trypsinized, harvested, washed with PBS, and fixed with 75% ethanol overnight at −20 °C. Next, fixed cells were washed with PBS and stained for 4 h in the dark with a PI solution consisting of 50 μg/mL PI, 50 μg/mL RNase, 0.1% sodium citrate and 0.1% Triton X-100 (pH 8.0). Cell cycle distribution was determined using FACScan (Becton Dickinson, Franklin Lakes, NJ, USA).
# IOSE144 cells = test: Cell cycle distribution assay, IOSE144; format: cell-based, human; conditions: IOSE144, 24 h; control 1.17%
# [9] = system: five cancer cell lines (HT-29, BGC-823, Hela, MCF-7, A549); test: Cytotoxic activity on five cancer cell lines (overall statement); format: cell-based, human; conditions: MTT
# Text: as §1
# [10] = parameters: method as in earlier work; conditions: stronger than ginsenoside-Rg3; cited from earlier work
# MCF-7 cells [11] = test: Wound healing assay; format: cell-based, human; conditions: MCF-7, 30 μM, 24 h, serum-free
# Protocol: MCF-7 cells were seeded in 10-cm dishes at a concentration of 1 × 10^5 cells/ mL and grown overnight. Then, a wound was created in the monolayer of cells by scratching the monolayer with a sharp tip followed by another 24 h of incubation in the presence of 30 μM of compound 3b or 0.1% DMSO under serum-free conditions, 30 μM of AD-1 as a positive control. The gap created was measured under a microscope to provide an indication of the wound healing capability of the cells.
# [12] = system: human gastric epithelial cells (GES-1); test: MTT cytotoxicity assay, GES-1 normal cells; format: cell-based; conditions: GES-1 normal cells, MTT, 48 h
# Text: as §1
# [13] = system: human ovarian epithelial cells (IOSE144); test: MTT cytotoxicity assay, IOSE144 normal cells; format: cell-based; conditions: IOSE144 normal cells, MTT, 48 h
# Text: as §1
# [14] = GES-1 gastric epithelial cells (normal cell line), GES-1 normal cells, MTT, 48 h, read-out: IC50
# [15] = IOSE144 ovarian epithelial cells (normal cell line), IOSE144 normal cells, MTT, 48 h, read-out: IC50
smiles,measurement,setting,value
CC(=O)Oc1ccccc1C(=O)OC1CCC2(C)C(CCC3(C)C2CC(O)C2C(C4(C)CCCC(C)(C)O4)CCC23C)C1(C)C (centres unmarked) [Compound 3b],IC50,[1]; Homo sapiens,10.7 ± 0.12 µM
same,IC50,[2]; Homo sapiens,11.2 ± 0.16 µM
same,IC50,[3]; Homo sapiens,20.9 ± 0.54 µM
same,IC50,"[4]; Homo sapiens, MCF7",2.56 ± 0.09 µM
same,IC50,[5]; Homo sapiens,14.37 ± 0.04 µM
same,IC50 at 48 h,[6],> 100 µM
same,IC50 at 48 h,[7],> 100 µM
same,subG1 phase after treatment,MCF-7 cells [8],56.95%
same,subG1 phase after treatment,IOSE144 cells,7.58%
same,anticancer activity (in words),[9],strong anticancer activity
same,melting point,,243 to 245 °C
"CC(C)(O)CCC[C@@](C)(O)C1CC[C@]2(C)C1[C@H](O)CC1[C@@]3(C)CC[C@H](O)C(C)(C)C3CC[C@]12C (some centres unmarked) [AD-2, 25-hydroxyprotopanaxadiol, reference compound]",IC50,[1]; Homo sapiens,18.7 ± 0.28 µM
same,IC50,[2]; Homo sapiens,44.2 ± 1.06 µM
same,IC50,[3]; Homo sapiens,48.6 ± 1.24 µM
same,IC50,"[4]; Homo sapiens, MCF7",49.6 ± 1.35 µM
same,IC50,[5]; Homo sapiens,34.3 ± 0.87 µM
same,IC50 at 48 h,[6]; [14],> 100 µM
same,IC50 at 48 h,[7]; [15],> 100 µM
same,antitumor activity compared with ginsenoside-Rg3,[10],5–15 fold
"CC(C)(O)CCCC(C)(O)C1CCC2(C)C1C(OC(=O)c1ccccc1O)CC1C3(C)CCC(OC(=O)c4ccccc4O)C(C)(C)C3CCC12C [Compound 7a, 20(R)-Dammarane-20, 25-diol-3β, 12β-di-yl-2′-hydroxybenzoate]",IC50,[1]; Homo sapiens,22.7 ± 0.46 µM
same,IC50,[2]; Homo sapiens,70.6 ± 2.12 µM
same,IC50,[3]; Homo sapiens,35.2 ± 1.24 µM
same,IC50,"[4]; Homo sapiens, MCF7",29.1 ± 0.69 µM
same,IC50,[5]; Homo sapiens,8.52 ± 0.15 µM
same,IC50 at 48 h,[6],> 100 µM
same,IC50 at 48 h,[7],> 100 µM
same,anticancer activity (in words),[9],strong anticancer activity
same,melting point,,197 to 199 °C
"CC(=O)Oc1ccccc1C(=O)OC1CC2C3(C)CCC(OC(=O)c4ccccc4OC(C)=O)C(C)(C)C3CCC2(C)C2(C)CCC(C3(C)CCCC(C)(C)O3)C12 [Compound 2b, 20(R)-Pananxadiol-3β, 12β-di-yl-2′-acetylbenzoate]",IC50,[1]; Homo sapiens,5.27 ± 0.14 µM
same,IC50,[2]; Homo sapiens,8.12 ± 0.25 µM
same,IC50,[3]; Homo sapiens,16.2 ± 0.34 µM
same,IC50,"[4]; Homo sapiens, MCF7",10.25 ± 0.05 µM
same,IC50,[5]; Homo sapiens,15.47 ± 0.13 µM
same,IC50 at 48 h,[6],> 100 µM
same,IC50 at 48 h,[7],> 100 µM
same,anticancer activity (in words),[9],strong anticancer activity
same,melting point,,238 to 240 °C
CC(=O)Oc1ccccc1C(=O)OC1CCC2(C)C(CCC3(C)C2CC(O)C2C(C(C)(O)CCCC(C)(C)O)CCC23C)C1(C)C (centres unmarked) [Compound 8b],IC50,[1]; Homo sapiens,13.25 ± 0.05 µM
same,IC50,[2]; Homo sapiens,10.2 ± 0.29 µM
same,IC50,[3]; Homo sapiens,10 ± 0.53 µM
same,IC50,"[4]; Homo sapiens, MCF7",14.7 ± 0.24 µM
same,IC50,[5]; Homo sapiens,6.12 ± 0.1 µM
same,IC50 at 48 h,[6],> 100 µM
same,IC50 at 48 h,[7],> 100 µM
same,anticancer activity (in words),[9],strong anticancer activity
same,melting point,,254 to 256 °C
"CC(=O)Oc1ccccc1C(=O)OC1CCC2(C)C(CCC3(C)C2CC(OC(=O)c2ccccc2O)C2C(C4(C)CCCC(C)(C)O4)CCC23C)C1(C)C [Compound 1b, 20(R)-Pananxadiol-3β-yl-2′-acetylbenzoate-12β-yl-2′-hydroxybenzoate]",IC50,[1]; Homo sapiens,12.2 ± 0.28 µM
same,IC50,[2]; Homo sapiens,9.65 ± 0.61 µM
same,IC50,[3]; Homo sapiens,11.3 ± 0.14 µM
same,IC50,"[4]; Homo sapiens, MCF7",7.65 ± 0.29 µM
same,IC50,[5]; Homo sapiens,13.26 ± 0.11 µM
same,IC50 at 48 h,[6],> 100 µM
same,IC50 at 48 h,[7],> 100 µM
same,anticancer activity (in words),[9],strong anticancer activity
same,melting point,,198 to 200 °C
"COC(C)(C)CCCC(C)(O)C1CCC2(C)C1C(OC(=O)c1ccccc1O)CC1C3(C)CCC(O)C(C)(C)C3CCC12C [Compound 3a, 20(R)-25-Methoxydammarane-3β,20-diol-12β-yl-2′-hydroxybenzoate]",IC50,[1]; Homo sapiens,10.5 ± 0.25 µM
same,IC50,[2]; Homo sapiens,15.1 ± 0.24 µM
same,IC50,[3]; Homo sapiens,9.78 ± 0.03 µM
same,IC50,"[4]; Homo sapiens, MCF7",5.34 ± 0.04 µM
same,IC50,[5]; Homo sapiens,13 ± 0.25 µM
same,IC50 at 48 h,[6],> 100 µM
same,IC50 at 48 h,[7],> 100 µM
same,anticancer activity (in words),[9],strong anticancer activity
same,melting point,,235 to 237 °C
"CC(C)(CCCC(C)(O)C1CCC2(C)C1C(OC(=O)c1ccccc1O)CC1C3(C)CCC(OC(=O)c4ccccc4O)C(C)(C)C3CCC12C)OC(=O)c1ccccc1O [Compound 1a, 20(R)-Dammarane-20-hydroxy-3β,12β,25-tri-yl-2′-hydroxybenzoate]",IC50,[1]; Homo sapiens,9.23 ± 0.08 µM
same,IC50,[2]; Homo sapiens,11.8 ± 0.21 µM
same,IC50,[3]; Homo sapiens,3.23 ± 0.34 µM
same,IC50,"[4]; Homo sapiens, MCF7",20.31 ± 0.11 µM
same,IC50,[5]; Homo sapiens,15.69 ± 0.1 µM
same,IC50 at 48 h,[6],> 100 µM
same,IC50 at 48 h,[7],> 100 µM
same,anticancer activity (in words),[9],strong anticancer activity
same,melting point,,192 to 194 °C
"COC(C)(C)CCC[C@@](C)(O)C1CC[C@]2(C)C1[C@H](O)CC1[C@@]3(C)CC[C@H](O)C(C)(C)C3CC[C@]12C (some centres unmarked) [AD-1, 25-methoxyprotopanaxadiol, reference compound]",IC50,[1]; Homo sapiens,16.6 ± 0.25 µM
same,IC50,[2]; Homo sapiens,16.6 ± 0.45 µM
same,IC50,[3]; Homo sapiens,12.99 ± 0.06 µM
same,IC50,"[4]; Homo sapiens, MCF7",7.34 ± 0.19 µM
same,IC50,[5]; Homo sapiens,34.32 ± 0.31 µM
same,IC50 at 48 h,[6]; [14],> 100 µM
same,IC50 at 48 h,[7]; [15],> 100 µM
same,subG1 phase after treatment,MCF-7 cells [8],38.45%
same,MCF-7 cell migration (wound distance),MCF-7 cells [11],inhibited the migration of MCF-7 cells
same,antitumor activity compared with ginsenoside-Rg3,[10],5–15 fold
"CC1(C)CCC[C@](C)(C2CC[C@]3(C)C2[C@H](OC(=O)c2ccccc2O)CC2[C@@]4(C)CC[C@H](O)C(C)(C)C4CC[C@]23C)O1 (stereo partly drawn) [Compound 12a, 20(R)-Pananxadiol-3β-hydroxy-12β-yl-2′-hydroxybenzoate]",IC50,[1]; Homo sapiens,> 100 µM
same,IC50,[2]; Homo sapiens,> 100 µM
same,IC50,[3]; Homo sapiens,> 100 µM
same,IC50,"[4]; Homo sapiens, MCF7",60.1 ± 2.45 µM
same,IC50,[5]; Homo sapiens,50.2 ± 0.94 µM
same,IC50 at 48 h,[6],> 100 µM
same,IC50 at 48 h,[7],> 100 µM
same,melting point,,248 to 250 °C
"CC(C)=CCC[C@](C)(O)[C@H]1CC[C@]2(C)[C@@H]1[C@H](O)C[C@@H]1[C@@]3(C)CC[C@H](O[C@@H]4O[C@H](CO)[C@@H](O)[C@H](O)[C@H]4O[C@@H]4O[C@H](CO)[C@@H](O)[C@H](O)[C@H]4O)C(C)(C)[C@@H]3CC[C@]12C [Rg3, Ginsenoside-Rg3, reference compound]",IC50,[1],> 100 µM
same,IC50,[2],> 100 µM
same,IC50,[3],85.2 ± 1.59 µM
same,IC50,[4],92.1 ± 2.36 µM
same,IC50,[5],> 100 µM
same,IC50,[12],> 100 µM
same,IC50,[13],> 100 µM
